Data taken from ChEMBL document CHEMBL1150235, “Parnapimarol and nepetaparnone from Nepeta parnassica” (2008).
Calls of active or inactive are those of the source. No cut-off for these calls is given here.

How the values were obtained:
Culex pipiens molestus = experiment: Insecticidal activity against Culex pipiens molestus larvae at 10 to 50 mg/L after 6 to 24 hrs; assay type: functional, organism-based
Leptothorax = experiment: Insecticidal activity against Leptothorax sp. assessed as number of dead ants at 0.5 mg after 6 to 24 hrs relative to control; assay type: functional

Row | Structure (SMILES) | Activity (Culex pipiens molestus) | Activity (Leptothorax)
1 | CC1=C2CC[C@H](C)[C@@]23C(=O)O[C@H]1[C@@]12C(=O)O[C@H]3C(C)=C1CC[C@@H]2C [NEPETANUDONE] | inactive | 45%
2 | CC1=C2CC[C@@H](C)[C@@]23C(=O)O[C@H]1[C@@]12C(=O)O[C@H]3C(C)=C1CC[C@@H]2C [NEPETAPARNONE] | inactive | 55%
3 | C=C[C@]1(C)CCC2=C(CC[C@H]3[C@](C)(COC(=O)C(C)CC)CC[C@H](O)[C@]23C)[C@@H]1OC(C)=O (stereo partly specified) [PARNAPIMAROL] | inactive | 31%
